Assay results reported in publication PMC5218480 (PLoS ONE, 2017).

Tested on: MV-4-11 cells
Test: Gene expression microarray analysis (Affymetrix PrimeView) and GSEA
Type: cell-based, human
Design: RFU PODN (11730768_x_at) / Fold change /veh PODN (11730768_x_at) / RFU LINC00158 (11744669_a_at) / Fold change /veh LINC00158 (11744669_a_at) / RFU DUSP10 (11751237_a_at) / Fold change /veh DUSP10 (11751237_a_at) / RFU ID3 (11757404_x_at) / Fold change /veh ID3 (11757404_x_at) / RFU PLEKHG5 (11737974_s_at) / Fold change /veh PLEKHG5 (11737974_s_at) / RFU LRRC4B (11730491_at) / Fold change /veh LRRC4B (11730491_at) / RFU GIMAP4 (11747438_a_at) / Fold change /veh GIMAP4 (11747438_a_at) / RFU KRT8 (11758183_x_at) / Fold change /veh KRT8 (11758183_x_at) / RFU CNN1 (11734310_a_at) / Fold change /veh CNN1 (11734310_a_at) / RFU VPS37D (11726825_at) / Fold change /veh VPS37D (11726825_at) / RFU C10orf10 (11716522_x_at) / Fold change /veh C10orf10 (11716522_x_at) / RFU KIR2DL2 /// KIR2DL4 /// KIR2DL5A /// KIR2DL5B /// KIR2DS1 /// KIR2DS2 /// KIR2DS3 /// KIR2DS4 /// KIR3DL3 /// KIR3DL3 /// KIR3DS1 (11738374_at) / Fold change /veh KIR2DL2 /// KIR2DL4 /// KIR2DL5A /// KIR2DL5B /// KIR2DS1 /// KIR2DS2 /// KIR2DS3 /// KIR2DS4 /// KIR3DL3 /// KIR3DL3 /// KIR3DS1 (11738374_at) / RFU C1QL1 (11718748_at) / Fold change /veh C1QL1 (11718748_at) / RFU TMPRSS4 (11747572_a_at) / Fold change /veh TMPRSS4 (11747572_a_at) / RFU HAMP (11756126_x_at) / Fold change /veh HAMP (11756126_x_at) / RFU RNFT2 (11725882_a_at) / Fold change /veh RNFT2 (11725882_a_at) / RFU NR4A2 (11747474_a_at) / Fold change /veh NR4A2 (11747474_a_at) / RFU ABCC12 (11746883_a_at) / Fold change /veh ABCC12 (11746883_a_at) / RFU TMEM136 (11760407_x_at) / Fold change /veh TMEM136 (11760407_x_at) / RFU CLDN22 /// WWC2 (11732394_at) / Fold change /veh CLDN22 /// WWC2 (11732394_at) / RFU HLA-DPB1 (11760878_x_at) / Fold change /veh HLA-DPB1 (11760878_x_at) / RFU SPINT1 (11716480_a_at) / Fold change /veh SPINT1 (11716480_a_at) / RFU GAP43 (11754022_s_at) / Fold change /veh GAP43 (11754022_s_at) / RFU A4GNT (11735810_at) / Fold change /veh A4GNT (11735810_at) / RFU PRB3 (11715151_x_at) / Fold change /veh PRB3 (11715151_x_at) / RFU TUBB4B (11761932_at) / Fold change /veh TUBB4B (11761932_at) / RFU CAPN14 (11732068_a_at) / Fold change /veh CAPN14 (11732068_a_at) / RFU TMCC2 (11721928_a_at) / Fold change /veh TMCC2 (11721928_a_at) / RFU IRGQ (11745062_a_at) / Fold change /veh IRGQ (11745062_a_at) / RFU FAM174B (11720279_a_at) / Fold change /veh FAM174B (11720279_a_at) / RFU TMPRSS4 (11748680_a_at) / Fold change /veh TMPRSS4 (11748680_a_at) / RFU FAM212B (11763350_a_at) / Fold change /veh FAM212B (11763350_a_at) / RFU PLEKHG5 (11743358_a_at) / Fold change /veh PLEKHG5 (11743358_a_at) / RFU ZSCAN30 (11745921_a_at) / Fold change /veh ZSCAN30 (11745921_a_at) / RFU CMKLR1 (11741424_a_at) / Fold change /veh CMKLR1 (11741424_a_at) / RFU LOC101060620 /// MAPK8IP1 (11723275_at) / Fold change /veh LOC101060620 /// MAPK8IP1 (11723275_at) / RFU SPTSSB (11747773_x_at) / Fold change /veh SPTSSB (11747773_x_at) / RFU PRSS12 (11739890_at) / Fold change /veh PRSS12 (11739890_at) / RFU BIN1 (11741810_x_at) / Fold change /veh BIN1 (11741810_x_at) / RFU WNT11 (11732464_a_at) / Fold change /veh WNT11 (11732464_a_at) / RFU C10orf10 (11716521_a_at) / Fold change /veh C10orf10 (11716521_a_at) / RFU C5orf56 (11738089_at) / Fold change /veh C5orf56 (11738089_at) / RFU CYB561 (11721691_x_at) / Fold change /veh CYB561 (11721691_x_at) / RFU ANKRD19P (11752326_a_at) / Fold change /veh ANKRD19P (11752326_a_at) / RFU OR2T12 /// OR2T33 /// OR2T8 (11738714_s_at) / Fold change /veh OR2T12 /// OR2T33 /// OR2T8 (11738714_s_at) / RFU VCAN (11748164_a_at) / Fold change /veh VCAN (11748164_a_at) / RFU JSRP1 (11732532_at) / Fold change /veh JSRP1 (11732532_at) / RFU KRTAP10-11 (11738290_x_at) / Fold change /veh KRTAP10-11 (11738290_x_at) / RFU MYO3A (11730013_a_at) / Fold change /veh MYO3A (11730013_a_at) / RFU EBF3 (11725865_a_at) / Fold change /veh EBF3 (11725865_a_at) / RFU CAMK2N1 (11719241_x_at) / Fold change /veh CAMK2N1 (11719241_x_at) / RFU C5orf56 (11738088_a_at) / Fold change /veh C5orf56 (11738088_a_at) / RFU OLFML3 (11715873_a_at) / Fold change /veh OLFML3 (11715873_a_at) / RFU LOC100653217 /// NTM (11731650_a_at) / Fold change /veh LOC100653217 /// NTM (11731650_a_at) / RFU MAPK11 (11762145_a_at) / Fold change /veh MAPK11 (11762145_a_at) / RFU FIZ1 (11724087_x_at) / Fold change /veh FIZ1 (11724087_x_at) / RFU OASL (11726364_x_at) / Fold change /veh OASL (11726364_x_at) / RFU SOX15 (11748057_x_at) / Fold change /veh SOX15 (11748057_x_at) / RFU CD79A (11719716_a_at) / Fold change /veh CD79A (11719716_a_at) / RFU HIST1H1D (11736915_at) / Fold change /veh HIST1H1D (11736915_at) / RFU CASKIN2 (11723855_a_at) / Fold change /veh CASKIN2 (11723855_a_at) / RFU LOC730098 (11760151_x_at) / Fold change /veh LOC730098 (11760151_x_at) / RFU OR4N2 (11742367_at) / Fold change /veh OR4N2 (11742367_at) / RFU PRRT2 (11749266_a_at) / Fold change /veh PRRT2 (11749266_a_at) / RFU SNX32 (11753110_a_at) / Fold change /veh SNX32 (11753110_a_at) / RFU CDHR5 (11726645_a_at) / Fold change /veh CDHR5 (11726645_a_at) / RFU RCAN1 (11760418_a_at) / Fold change /veh RCAN1 (11760418_a_at) / RFU FAM167A (11723789_a_at) / Fold change /veh FAM167A (11723789_a_at) / RFU FAM26E (11764081_at) / Fold change /veh FAM26E (11764081_at) / RFU ISYNA1 (11749810_s_at) / Fold change /veh ISYNA1 (11749810_s_at) / RFU ACY1 (11761880_at) / Fold change /veh ACY1 (11761880_at) / RFU 11764098_at / Fold change /veh 11764098_at / RFU SAMD14 (11745864_x_at) / Fold change /veh SAMD14 (11745864_x_at) / RFU NPB (11741838_a_at) / Fold change /veh NPB (11741838_a_at) / RFU TMPRSS6 (11731388_a_at) / Fold change /veh TMPRSS6 (11731388_a_at) / RFU KRTAP10-2 (11738614_at) / Fold change /veh KRTAP10-2 (11738614_at) / RFU ARHGAP8 /// PRR5-ARHGAP8 (11727945_x_at) / Fold change /veh ARHGAP8 /// PRR5-ARHGAP8 (11727945_x_at) / RFU KRTAP5-7 /// NADSYN1 (11734609_at) / Fold change /veh KRTAP5-7 /// NADSYN1 (11734609_at) / RFU RASL12 (11751679_a_at) / Fold change /veh RASL12 (11751679_a_at) / RFU CDKN2B (11736163_a_at) / Fold change /veh CDKN2B (11736163_a_at) / RFU PRF1 (11729649_at) / Fold change /veh PRF1 (11729649_at) / RFU, ZNF638 /// ZNF638-IT1 / Fold change vs veh, ZNF638 /// ZNF638-IT1 / RFU, PANK3 / Fold change vs veh, PANK3 / RFU, SH3YL1 / Fold change vs veh, SH3YL1 / RFU, ZEB2 / Fold change vs veh, ZEB2 / RFU, NRIP1 / Fold change vs veh, NRIP1 / RFU, PTTG1IP / Fold change vs veh, PTTG1IP / RFU, CAPN2 / Fold change vs veh, CAPN2 / RFU, MED14 / Fold change vs veh, MED14 / RFU, SNORA58 / Fold change vs veh, SNORA58 / RFU, C1orf63 / Fold change vs veh, C1orf63 / RFU, LRRFIP1 / Fold change vs veh, LRRFIP1 / RFU, NDUFAF7 / Fold change vs veh, NDUFAF7 / RFU, SLC12A2 / Fold change vs veh, SLC12A2 / RFU, IBTK / Fold change vs veh, IBTK / RFU, ESF1 / Fold change vs veh, ESF1 / Fold change vs veh, TMEM50B / RFU, TAOK1 / Fold change vs veh, TAOK1 / RFU, ACBD3 / Fold change vs veh, ACBD3 / RFU, TMA16 / Fold change vs veh, TMA16 / RFU, RWDD3 / Fold change vs veh, RWDD3 / RFU, BCAT1 / Fold change vs veh, BCAT1 / RFU, EDEM3 / Fold change vs veh, EDEM3 / RFU, TMEM33 / Fold change vs veh, TMEM33 / RFU, WDR75 / Fold change vs veh, WDR75 / RFU, AHCTF1 / Fold change vs veh, AHCTF1 / RFU, TFRC / Fold change vs veh, TFRC / RFU, ZDHHC17 / Fold change vs veh, ZDHHC17 / RFU, NOM1 / Fold change vs veh, NOM1 / RFU, ARL8B / Fold change vs veh, ARL8B / RFU, ZBTB11 / Fold change vs veh, ZBTB11 / RFU, TAMM41 / Fold change vs veh, TAMM41 / RFU, KIAA1704 /// LOC100996395 / Fold change vs veh, KIAA1704 /// LOC100996395 / RFU, ING1 / Fold change vs veh, ING1 / RFU, TRMT61B / Fold change vs veh, TRMT61B / RFU, FUBP3 / Fold change vs veh, FUBP3 / RFU, TP53 / Fold change vs veh, TP53 / RFU, TNKS2 / Fold change vs veh, TNKS2 / RFU, ZFP14 / Fold change vs veh, ZFP14 / RFU, ACTR2 / Fold change vs veh, ACTR2 / RFU, PPP3R1 / Fold change vs veh, PPP3R1 / RFU, PIK3R1 / Fold change vs veh, PIK3R1 / RFU, HNRNPA1 / Fold change vs veh, HNRNPA1 / RFU, RNF170 / Fold change vs veh, RNF170 / RFU, ZNF28 / Fold change vs veh, ZNF28 / RFU, RNGTT / Fold change vs veh, RNGTT / RFU, OGT / Fold change vs veh, OGT / RFU, BRD1 / Fold change vs veh, BRD1 / RFU, MARS / Fold change vs veh, MARS / RFU, ZNF655 / Fold change vs veh, ZNF655 / RFU, FAHD1 / Fold change vs veh, FAHD1 / RFU, BDP1 / Fold change vs veh, BDP1 / RFU, LRRCC1 / Fold change vs veh, LRRCC1 / RFU, ARID1A / Fold change vs veh, ARID1A / RFU, ZNF146 / Fold change vs veh, ZNF146 / RFU, ZNF330 / Fold change vs veh, ZNF330 / RFU, GPN3 / Fold change vs veh, GPN3 / RFU, C9orf123 / Fold change vs veh, C9orf123 / RFU, N4BP2L2 / Fold change vs veh, N4BP2L2 / RFU, ARFIP1 / Fold change vs veh, ARFIP1 / RFU, FAM179B / Fold change vs veh, FAM179B / RFU, BCL10 / Fold change vs veh, BCL10 / RFU, UHRF1BP1L / Fold change vs veh, UHRF1BP1L / RFU, BET1 / Fold change vs veh, BET1 / RFU, CNOT2 / Fold change vs veh, CNOT2 / RFU, ZNF268 / Fold change vs veh, ZNF268 / Fold change vs veh, ZNF507 / RFU, DGCR2 / Fold change vs veh, DGCR2 / RFU, WDSUB1 / Fold change vs veh, WDSUB1 / Fold change vs veh, HSP90B1 /// MIR3652 / RFU, ADSS / Fold change vs veh, ADSS / RFU, GK / Fold change vs veh, GK / RFU, ZNF148 / Fold change vs veh, ZNF148 / RFU, TAF9 / Fold change vs veh, TAF9 / RFU, SLC1A5 / Fold change vs veh, SLC1A5 / RFU, SLMO2 / Fold change vs veh, SLMO2 / RFU, ABCC4 / Fold change vs veh, ABCC4 / RFU, LOC101060439 /// RAP1B / Fold change vs veh, LOC101060439 /// RAP1B / RFU, RFX7 / Fold change vs veh, RFX7 / RFU, GTPBP10 / Fold change vs veh, GTPBP10 / RFU, CNEP1R1 / Fold change vs veh, CNEP1R1 / RFU, BIVM-ERCC5 /// ERCC5 / Fold change vs veh, BIVM-ERCC5 /// ERCC5 / RFU, ILF3 / Fold change vs veh, ILF3 / RFU 11762660_at / Fold change /veh 11762660_at / RFU VCAN (11757783_s_at) / Fold change /veh VCAN (11757783_s_at) / RFU DDX43 (11728927_at) / Fold change /veh DDX43 (11728927_at) / RFU KRT8 (11758188_x_at) / Fold change /veh KRT8 (11758188_x_at) / RFU NKD1 (11759106_at) / Fold change /veh NKD1 (11759106_at) / RFU SRD5A1 (11742802_a_at) / Fold change /veh SRD5A1 (11742802_a_at) / RFU TPSAB1 /// TPSB2 (11721975_s_at) / Fold change /veh TPSAB1 /// TPSB2 (11721975_s_at) / RFU GSTM3 (11746129_a_at) / Fold change /veh GSTM3 (11746129_a_at) / RFU IL23R (11737362_x_at) / Fold change /veh IL23R (11737362_x_at) / RFU TMEM51 (11727254_a_at) / Fold change /veh TMEM51 (11727254_a_at) / RFU PIWIL2 (11732686_x_at) / Fold change /veh PIWIL2 (11732686_x_at) / RFU ORM1 (11744905_x_at) / Fold change /veh ORM1 (11744905_x_at) / RFU CCDC152 (11743942_at) / Fold change /veh CCDC152 (11743942_at) / RFU ECM1 (11717891_a_at) / Fold change /veh ECM1 (11717891_a_at) / RFU IL23R (11748794_a_at) / Fold change /veh IL23R (11748794_a_at) / RFU TNFAIP8L3 (11732012_x_at) / Fold change /veh TNFAIP8L3 (11732012_x_at) / RFU MBOAT4 (11741988_at) / Fold change /veh MBOAT4 (11741988_at) / RFU 11764193_at / Fold change /veh 11764193_at / RFU TMEM53 (11763286_at) / Fold change /veh TMEM53 (11763286_at) / RFU MAGEB2 (11727129_at) / Fold change /veh MAGEB2 (11727129_at) / RFU TMEM200A (11744735_a_at) / Fold change /veh TMEM200A (11744735_a_at) / RFU CCDC152 (11751479_a_at) / Fold change /veh CCDC152 (11751479_a_at) / RFU FAM211A (11726209_a_at) / Fold change /veh FAM211A (11726209_a_at) / RFU RGS16 (11746705_a_at) / Fold change /veh RGS16 (11746705_a_at) / RFU VCAN (11755009_s_at) / Fold change /veh VCAN (11755009_s_at) / RFU RHOB (11743442_s_at) / Fold change /veh RHOB (11743442_s_at) / RFU RGS16 (11720943_a_at) / Fold change /veh RGS16 (11720943_a_at) / RFU RGS16 (11720944_at) / Fold change /veh RGS16 (11720944_at) / RFU, VPS4B / Fold change vs veh, VPS4B / RFU, CREB1 / Fold change vs veh, CREB1 / RFU, DNAJC13 / Fold change vs veh, DNAJC13 / RFU, GNAQ / Fold change vs veh, GNAQ / RFU, CDK5R1 / Fold change vs veh, CDK5R1 / RFU, ZRANB3 / Fold change vs veh, ZRANB3 / RFU, CUL4A / Fold change vs veh, CUL4A / RFU, CCNY / Fold change vs veh, CCNY / RFU, UFL1 / Fold change vs veh, UFL1 / RFU, COG3 / Fold change vs veh, COG3 / RFU, DIAPH2 / Fold change vs veh, DIAPH2 / RFU, SKA2 / Fold change vs veh, SKA2 / RFU, AFF3 / Fold change vs veh, AFF3 / RFU, LMF1 / Fold change vs veh, LMF1 / RFU, IPO11 / Fold change vs veh, IPO11 / RFU, DFFB / Fold change vs veh, DFFB / RFU, FOXP1 / Fold change vs veh, FOXP1 / RFU, CARD8 / Fold change vs veh, CARD8 / RFU, STRN3 / Fold change vs veh, STRN3 / RFU, ADK / Fold change vs veh, ADK / RFU, RASSF2 / Fold change vs veh, RASSF2 / RFU, WIPF1 / Fold change vs veh, WIPF1 / RFU, LARP1B / Fold change vs veh, LARP1B / RFU, RASA1 / Fold change vs veh, RASA1 / RFU, RB1 / Fold change vs veh, RB1 / RFU, PPFIA1 / Fold change vs veh, PPFIA1 / RFU, MAT2A / Fold change vs veh, MAT2A / RFU, CCT5 / Fold change vs veh, CCT5 / RFU, WDR92 / Fold change vs veh, WDR92 / RFU, CUX1 / Fold change vs veh, CUX1 / RFU, TTC7A / Fold change vs veh, TTC7A / RFU, TMEM135 / Fold change vs veh, TMEM135 / RFU, DEPTOR / Fold change vs veh, DEPTOR / RFU, CPM / Fold change vs veh, CPM / RFU, DNAJB6 / Fold change vs veh, DNAJB6 / RFU, CACNA2D3 / Fold change vs veh, CACNA2D3 / RFU, DTX4 / Fold change vs veh, DTX4 / RFU, TFCP2 / Fold change vs veh, TFCP2 / RFU, GMCL1 /// GMCL1P1 / Fold change vs veh, GMCL1 /// GMCL1P1 / RFU, AEBP2 / Fold change vs veh, AEBP2 / RFU, SNHG1 /// SNORD22 /// SNORD25 /// SNORD26 /// SNORD27 /// SNORD28 /// SNORD29 /// SNORD31 / Fold change vs veh, SNHG1 /// SNORD22 /// SNORD25 /// SNORD26 /// SNORD27 /// SNORD28 /// SNORD29 /// SNORD31 / Fold change (Aza/veh), C12orf56 (ProbeSet 11735607_a_at) / Fold change (ACY-1035/veh), C12orf56 (ProbeSet 11735607_a_at) / Fold change (Aza/veh), FGFR1OP (ProbeSet 11751329_s_at) / Fold change (ACY-1035/veh), FGFR1OP (ProbeSet 11751329_s_at) / Fold change (Aza/veh), VPS36 (ProbeSet 11739960_a_at) / Fold change (ACY-1035/veh), VPS36 (ProbeSet 11739960_a_at) / RFU SYPL1 (11715823_x_at) / Fold change /veh SYPL1 (11715823_x_at) / RFU IGFBP7 (11715501_s_at) / Fold change /veh IGFBP7 (11715501_s_at) / RFU REEP3 (11722064_at) / Fold change /veh REEP3 (11722064_at) / RFU IGLL1 (11728026_x_at) / Fold change /veh IGLL1 (11728026_x_at): dose or concentration left out as unconfirmed
Settings: MV-4-11 cells, 48 hours

For `Nc1ccc(-c2cccs2)cc1NC(=O)c1ccc2c(c1)cc(C1CC1)n2CCN1CCOCC1` [ACY-1035], the “Fold change /veh CASKIN2 (11723855_a_at)” value was 1.05.
